tested on: A375P tumor cells; experiment: Cell growth inhibition assay (CellTiter-Glo), A375P; details: Homo sapiens, 72 h, read-out: Activity in A375P Tumor Cells;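 note: total ATP luminescence used as proxy for cell number, serial threefold compound dilutions at 0.2% DMSO, growth inhibition expressed versus DMSO vehicle-treated wells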

IC50, 500 to 5000 nM:
CCNc1nc(-c2cc(OC)cc(OC)c2)c(-c2ccnc(Nc3cc(F)c(N4CCN(CCF)CC4)c(F)c3)n2)o1 [Example 94], CCNc1nc(-c2cc(OC)cc(OC)c2)c(-c2ccnc(Nc3ccc(OC4CCN(CCS(C)(=O)=O)CC4)c(OC)c3)n2)o1 [Example 95], CCNc1nc(-c2cc(OC)cc(OC)c2)c(-c2ccnc(Nc3ccc(OC4CCN(CCF)CC4)c(OC)c3)n2)o1 [Example 96], COc1cc(C)cc(-c2nc(C(C)C)oc2-c2ccnc(Nc3ccc(N4CCN(C(C)=O)CC4)nc3)n2)c1 [Example 98], COc1cc(C)cc(-c2nc(C(C)C)oc2-c2ccnc(Nc3ccc(N4CCOCC4)nc3)n2)c1 [Example 99], COc1cc(C)cc(-c2nc(C(C)C)oc2-c2ccnc(Nc3ccc(N4CCN(CCS(C)(=O)=O)CC4)c(F)c3)n2)c1 [Example 102], CCNc1nc(-c2cc(Cl)cc(OC)c2)c(-c2ccnc(Nc3ccc(N4CCN(CCF)CC4)c(F)c3)n2)o1 [Example 104], CCNc1nc(-c2cc(OC)cc(OC)c2)c(-c2ccnc(Nc3ccc(N4CCN(CCO)CC4)nc3)n2)o1 [Example 108]

IC50, < 500 nM:
COc1cc(OC)cc(-c2nc(NC3CC3)sc2-c2ccnc(Nc3ccc(OCCN(C)C)c(Cl)c3)n2)c1 [Example 105], CCNc1nc(-c2cc(OC)cc(OC)c2)c(-c2ccnc(Nc3ccc(OCCN(C)C)c(C)c3)n2)s1 [Example 106]

tested on: Colo205 tumor cells; experiment: Cell growth inhibition assay (CellTiter-Glo), Colo205; details: Homo sapiens, COLO 205, 72 h, read-out: Activity in Colo205 Tumor Cells;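 note: growth measured via total ATP luminescence (CellTiter-Glo) as a proxy for cell number, inhibition expressed against DMSO-treated control wells, 3-day exposure at 0.2% final DMSO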

IC50, 500 to 5000 nM:
CCNc1nc(-c2cc(OC)cc(OC)c2)c(-c2ccnc(Nc3ccc(OC4CCN(CCS(C)(=O)=O)CC4)c(OC)c3)n2)o1 [Example 95], CCNc1nc(-c2cc(OC)cc(OC)c2)c(-c2ccnc(Nc3ccc(OC4CCN(CCF)CC4)c(OC)c3)n2)o1 [Example 96], COc1cc(C)cc(-c2nc(C(C)C)oc2-c2ccnc(Nc3ccc(N4CCOCC4)nc3)n2)c1 [Example 99]

IC50, < 500 nM:
CCNc1nc(-c2cc(OC)cc(OC)c2)c(-c2ccnc(Nc3cc(F)c(N4CCN(CCF)CC4)c(F)c3)n2)o1 [Example 94], COc1cc(C)cc(-c2nc(C(C)C)oc2-c2ccnc(Nc3ccc(N4CCN(C(C)=O)CC4)nc3)n2)c1 [Example 98], COc1cc(C)cc(-c2nc(C(C)C)oc2-c2ccnc(Nc3ccc(N4CCN(CCS(C)(=O)=O)CC4)c(F)c3)n2)c1 [Example 102], CCNc1nc(-c2cc(Cl)cc(OC)c2)c(-c2ccnc(Nc3ccc(N4CCN(CCF)CC4)c(F)c3)n2)o1 [Example 104], COc1cc(OC)cc(-c2nc(NC3CC3)sc2-c2ccnc(Nc3ccc(OCCN(C)C)c(Cl)c3)n2)c1 [Example 105], CCNc1nc(-c2cc(OC)cc(OC)c2)c(-c2ccnc(Nc3ccc(OCCN(C)C)c(C)c3)n2)s1 [Example 106], CCNc1nc(-c2cc(OC)cc(OC)c2)c(-c2ccnc(Nc3ccc(N4CCN(CCO)CC4)nc3)n2)o1 [Example 108]

tested on: SK-MEL-28 tumor cells; experiment: Cell growth inhibition assay (CellTiter-Glo), SK-MEL-28; details: Homo sapiens, SK-MEL-28, 72 h, read-out: Activity in SK-MEL-28 Tumor Cells;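 note: luminescent total ATP as a proxy for cell number, threefold serial dilutions at 0.2% DMSO, percent growth inhibition versus DMSO vehicle control wells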

IC50, < 500 nM:
COc1cc(OC)cc(-c2nc(NC3CC3)sc2-c2ccnc(Nc3ccc(OCCN(C)C)c(Cl)c3)n2)c1 [Example 105]

IC50, 500 to 5000 nM:
CCNc1nc(-c2cc(OC)cc(OC)c2)c(-c2ccnc(Nc3cc(F)c(N4CCN(CCF)CC4)c(F)c3)n2)o1 [Example 94], CCNc1nc(-c2cc(OC)cc(OC)c2)c(-c2ccnc(Nc3ccc(OC4CCN(CCS(C)(=O)=O)CC4)c(OC)c3)n2)o1 [Example 95], CCNc1nc(-c2cc(OC)cc(OC)c2)c(-c2ccnc(Nc3ccc(OC4CCN(CCF)CC4)c(OC)c3)n2)o1 [Example 96], COc1cc(C)cc(-c2nc(C(C)C)oc2-c2ccnc(Nc3ccc(N4CCN(C(C)=O)CC4)nc3)n2)c1 [Example 98], COc1cc(C)cc(-c2nc(C(C)C)oc2-c2ccnc(Nc3ccc(N4CCOCC4)nc3)n2)c1 [Example 99], COc1cc(C)cc(-c2nc(C(C)C)oc2-c2ccnc(Nc3ccc(N4CCN(CCS(C)(=O)=O)CC4)c(F)c3)n2)c1 [Example 102], CCNc1nc(-c2cc(Cl)cc(OC)c2)c(-c2ccnc(Nc3ccc(N4CCN(CCF)CC4)c(F)c3)n2)o1 [Example 104], CCNc1nc(-c2cc(OC)cc(OC)c2)c(-c2ccnc(Nc3ccc(OCCN(C)C)c(C)c3)n2)s1 [Example 106], CCNc1nc(-c2cc(OC)cc(OC)c2)c(-c2ccnc(Nc3ccc(N4CCN(CCO)CC4)nc3)n2)o1 [Example 108]

tested on: SK-MEL-3 tumor cells; experiment: Cell growth inhibition assay (CellTiter-Glo), SK-MEL-3; details: Homo sapiens, SK-MEL3, 72 h, read-out: Activity in SK-MEL-3 Tumor Cells;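 note: human melanoma cells grown with compound for 3 days in 0.2% DMSO, total ATP read by luminescence as proxy for cell number, growth inhibition versus DMSO-treated wells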

IC50, < 500 nM:
CCNc1nc(-c2cc(OC)cc(OC)c2)c(-c2ccnc(Nc3cc(F)c(N4CCN(CCF)CC4)c(F)c3)n2)o1 [Example 94], COc1cc(C)cc(-c2nc(C(C)C)oc2-c2ccnc(Nc3ccc(N4CCN(C(C)=O)CC4)nc3)n2)c1 [Example 98], COc1cc(C)cc(-c2nc(C(C)C)oc2-c2ccnc(Nc3ccc(N4CCN(CCS(C)(=O)=O)CC4)c(F)c3)n2)c1 [Example 102], COc1cc(OC)cc(-c2nc(NC3CC3)sc2-c2ccnc(Nc3ccc(OCCN(C)C)c(Cl)c3)n2)c1 [Example 105], CCNc1nc(-c2cc(OC)cc(OC)c2)c(-c2ccnc(Nc3ccc(OCCN(C)C)c(C)c3)n2)s1 [Example 106]

IC50, 500 to 5000 nM:
CCNc1nc(-c2cc(OC)cc(OC)c2)c(-c2ccnc(Nc3ccc(OC4CCN(CCS(C)(=O)=O)CC4)c(OC)c3)n2)o1 [Example 95], CCNc1nc(-c2cc(OC)cc(OC)c2)c(-c2ccnc(Nc3ccc(OC4CCN(CCF)CC4)c(OC)c3)n2)o1 [Example 96], COc1cc(C)cc(-c2nc(C(C)C)oc2-c2ccnc(Nc3ccc(N4CCOCC4)nc3)n2)c1 [Example 99], CCNc1nc(-c2cc(Cl)cc(OC)c2)c(-c2ccnc(Nc3ccc(N4CCN(CCF)CC4)c(F)c3)n2)o1 [Example 104], CCNc1nc(-c2cc(OC)cc(OC)c2)c(-c2ccnc(Nc3ccc(N4CCN(CCO)CC4)nc3)n2)o1 [Example 108]

tested on: HT-29 tumor cells; experiment: Cell growth inhibition assay (CellTiter-Glo), HT-29; details: Homo sapiens, HT-29, 72 h, read-out: Activity in HT-29 Tumor Cells;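 note: ATP content read by luminescence as proxy for cell number, growth inhibition versus DMSO vehicle wells, 0.2% DMSO final, nine serial threefold compound dilutions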

IC50, < 500 nM:
CCNc1nc(-c2cc(OC)cc(OC)c2)c(-c2ccnc(Nc3cc(F)c(N4CCN(CCF)CC4)c(F)c3)n2)o1 [Example 94], COc1cc(C)cc(-c2nc(C(C)C)oc2-c2ccnc(Nc3ccc(N4CCN(CCS(C)(=O)=O)CC4)c(F)c3)n2)c1 [Example 102], CCNc1nc(-c2cc(Cl)cc(OC)c2)c(-c2ccnc(Nc3ccc(N4CCN(CCF)CC4)c(F)c3)n2)o1 [Example 104], COc1cc(OC)cc(-c2nc(NC3CC3)sc2-c2ccnc(Nc3ccc(OCCN(C)C)c(Cl)c3)n2)c1 [Example 105], CCNc1nc(-c2cc(OC)cc(OC)c2)c(-c2ccnc(Nc3ccc(OCCN(C)C)c(C)c3)n2)s1 [Example 106]

IC50, 500 to 5000 nM:
CCNc1nc(-c2cc(OC)cc(OC)c2)c(-c2ccnc(Nc3ccc(OC4CCN(CCS(C)(=O)=O)CC4)c(OC)c3)n2)o1 [Example 95], CCNc1nc(-c2cc(OC)cc(OC)c2)c(-c2ccnc(Nc3ccc(OC4CCN(CCF)CC4)c(OC)c3)n2)o1 [Example 96], COc1cc(C)cc(-c2nc(C(C)C)oc2-c2ccnc(Nc3ccc(N4CCN(C(C)=O)CC4)nc3)n2)c1 [Example 98], COc1cc(C)cc(-c2nc(C(C)C)oc2-c2ccnc(Nc3ccc(N4CCOCC4)nc3)n2)c1 [Example 99], CCNc1nc(-c2cc(OC)cc(OC)c2)c(-c2ccnc(Nc3ccc(N4CCN(CCO)CC4)nc3)n2)o1 [Example 108]

biological target: B-Raf (Homo sapiens, UniProt P15056); experiment: B-Raf Accelerated MEK ATPase assay (BRAMA); assay type: biochemical; details: BRAMA enzyme assay; class by pIC50; read-out: B-Raf Activity
Sequence (P15056 whole entry): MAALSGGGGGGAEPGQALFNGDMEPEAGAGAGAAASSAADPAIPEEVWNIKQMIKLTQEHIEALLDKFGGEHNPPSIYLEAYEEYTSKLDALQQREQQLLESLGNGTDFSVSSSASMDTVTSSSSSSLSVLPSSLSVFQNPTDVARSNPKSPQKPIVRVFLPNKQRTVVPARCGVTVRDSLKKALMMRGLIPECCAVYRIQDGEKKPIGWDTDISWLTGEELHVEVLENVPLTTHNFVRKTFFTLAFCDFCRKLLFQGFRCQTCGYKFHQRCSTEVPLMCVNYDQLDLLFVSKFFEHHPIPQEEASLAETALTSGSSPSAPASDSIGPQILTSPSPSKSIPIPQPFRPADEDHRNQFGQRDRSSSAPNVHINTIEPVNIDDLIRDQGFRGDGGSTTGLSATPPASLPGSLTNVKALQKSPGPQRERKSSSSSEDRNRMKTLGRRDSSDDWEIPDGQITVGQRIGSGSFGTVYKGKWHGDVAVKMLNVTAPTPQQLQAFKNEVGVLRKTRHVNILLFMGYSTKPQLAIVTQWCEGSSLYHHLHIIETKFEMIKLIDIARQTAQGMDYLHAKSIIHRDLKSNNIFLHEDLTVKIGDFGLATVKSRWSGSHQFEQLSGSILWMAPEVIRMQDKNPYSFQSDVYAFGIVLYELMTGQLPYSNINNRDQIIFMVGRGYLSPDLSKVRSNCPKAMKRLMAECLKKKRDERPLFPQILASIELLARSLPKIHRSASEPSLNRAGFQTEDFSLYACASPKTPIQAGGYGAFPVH
Summary of the method: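 B-Raf activity read as intrinsic MEK ATPase: catalytic activated RAF with non-phosphorylated MEK drives ADP formation, coupled through pyruvate kinase and lactate dehydrogenase to NADH oxidation, independent of ERK phosphorylation.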

IC50, < 100 nM:
CCNc1nc(-c2cc(OC)cc(OC)c2)c(-c2ccnc(Nc3cc(F)c(N4CCN(CCF)CC4)c(F)c3)n2)o1 [Example 94], CCNc1nc(-c2cc(OC)cc(OC)c2)c(-c2ccnc(Nc3ccc(OC4CCN(CCS(C)(=O)=O)CC4)c(OC)c3)n2)o1 [Example 95], CCNc1nc(-c2cc(OC)cc(OC)c2)c(-c2ccnc(Nc3ccc(OC4CCN(CCF)CC4)c(OC)c3)n2)o1 [Example 96], COc1cc(C)cc(-c2nc(C(C)C)oc2-c2ccnc(Nc3ccc(N4CCN(C(C)=O)CC4)nc3)n2)c1 [Example 98], COc1cc(C)cc(-c2nc(C(C)C)oc2-c2ccnc(Nc3ccc(N4CCOCC4)nc3)n2)c1 [Example 99], COc1cc(C)cc(-c2nc(C(C)C)oc2-c2ccnc(Nc3ccc(N4CCN(CCS(C)(=O)=O)CC4)c(F)c3)n2)c1 [Example 102], CCNc1nc(-c2cc(Cl)cc(OC)c2)c(-c2ccnc(Nc3ccc(N4CCN(CCF)CC4)c(F)c3)n2)o1 [Example 104], COc1cc(OC)cc(-c2nc(NC3CC3)sc2-c2ccnc(Nc3ccc(OCCN(C)C)c(Cl)c3)n2)c1 [Example 105], CCNc1nc(-c2cc(OC)cc(OC)c2)c(-c2ccnc(Nc3ccc(OCCN(C)C)c(C)c3)n2)s1 [Example 106], CCNc1nc(-c2cc(OC)cc(OC)c2)c(-c2ccnc(Nc3ccc(N4CCN(CCO)CC4)nc3)n2)o1 [Example 108]
